Marks after values point to notes of the source that are not given here.
Assay: Fatty acid concentration and composition of plasma lipid subfractions (GC) of Compound A-treated DIO mice
Type: in vivo, mouse
Experimental: FIG. 16(b) provides fatty acid composition of total plasma and each of the 4 plasma lipid subfractions of vehicle treated (WT) and 30 mg/kg Compound A-treated WT DIO mice (WT+A). (a-b) n=3 samples per group (each sample pooled from 2 mice). (a) Data are shown as minimum to maximum. t-test *P<0.05, **P<0.01, ***P<0.001.

[1] = DIO mouse plasma, Cholesterol ester, 30 mg/kg, GC, mean
[2] = DIO mouse plasma, Cholesterol ester, 30 mg/kg, GC, mean % composition
[3] = DIO mouse plasma, Free fatty acids, 30 mg/kg, GC, mean
[4] = DIO mouse plasma, Free fatty acids, 30 mg/kg, GC, mean % composition
[5] = DIO mouse plasma, Phospholipids, 30 mg/kg, GC, mean
[6] = DIO mouse plasma, Phospholipids, 30 mg/kg, GC, mean % composition

For `COc1ccn2c(=O)c(-c3cnn(CC(F)(F)C(F)(F)F)c3)c(C(F)(F)F)nc2c1` [Compound A, 8-methoxy-3-(1-(2,2,3,3,3-pentafluoropropyl)-1H-pyrazol-4-yl)-2-(trifluoromethyl)-4H-pyrido[1,2-a]pyrimidin-4-one], which “EPA/AA ratio in all four lipid subfractions” value (Compound A-treated DIO mice, plasma) is on record?
Its value is “increased”.

And the “C14:0 concentration, Cholesterol ester” value [1]?
Its value is 29.9 µg/mL.

And the “C16:0 concentration, Cholesterol ester” value [1]?
The value was 90.5 µg/mL.

What about the “C16:1n7 concentration, Cholesterol ester” value [1] of the same molecule?
Its value is 27.7 µg/mL.

And the “C16:1n7t concentration, Cholesterol ester” value [1]?
Its value is 2.6 µg/mL.

And the “C18:0 concentration, Cholesterol ester” value [1]?
Its value is 50.3 µg/mL.

And the “C18:1n9 concentration, Cholesterol ester” value [1]?
Its value is 113 µg/mL.

What about the “C18:1t concentration, Cholesterol ester” value [1] of the same molecule?
The value was 8.1 µg/mL.

And the “C18:2n6 concentration, Cholesterol ester” value [1]?
Its value is 516 µg/mL.

What about the “C18:2n6t concentration, Cholesterol ester” value [1] of the same molecule?
Its value is 10.4* μg mL^−1.

And the “C18:3n3 concentration, Cholesterol ester” value [1]?
The value was 3.0 µg/mL.

What about the “C18:3n6 concentration, Cholesterol ester” value [1] of the same molecule?
The value was 20.4* μg mL^−1.

What about the “C20:0 concentration, Cholesterol ester” value [1] of the same molecule?
The value was 1.2 µg/mL.

What about the “C20:1n9 concentration, Cholesterol ester” value [1] of the same molecule?
Its value is 0.6 µg/mL.

And the “C20:2n6 concentration, Cholesterol ester” value [1]?
The value was 1.4 µg/mL.

What about the “C20:3n6 concentration, Cholesterol ester” value [1] of the same molecule?
Its value is 124*** μg mL^−1.

And the “C20:5n3 concentration, Cholesterol ester” value [1]?
Its value is 2.8* μg mL^−1.

And the “C22:0 concentration, Cholesterol ester” value [1]?
Its value is 1.3 µg/mL.

What about the “C22:4n6 concentration, Cholesterol ester” value [1] of the same molecule?
Its value is 1.5 µg/mL.

And the “C22:5n3 concentration, Cholesterol ester” value [1]?
The value was 31.0 µg/mL.

What about the “C22:5n6 concentration, Cholesterol ester” value [1] of the same molecule?
Its value is 1.7 µg/mL.

And the “C22:6n3 concentration, Cholesterol ester” value [1]?
The value was 37.4* μg mL^−1.

And the “C24:0 concentration, Cholesterol ester” value [1]?
Its value is 1.2 µg/mL.

What about the “C24:1n9 concentration, Cholesterol ester” value [1] of the same molecule?
Its value is 2.6 µg/mL.

What about the “Total fatty acids concentration, Cholesterol ester” value [1] of the same molecule?
The value was 1150* μg mL^−1.

What about the “C14:0 composition, Cholesterol ester” value [2] of the same molecule?
Its value is 2.61* %.

What about the “C16:0 composition, Cholesterol ester” value [2] of the same molecule?
Its value is 7.89*** %.

What about the “C16:1n7 composition, Cholesterol ester” value [2] of the same molecule?
The value was 2.39* %.

And the “C16:1n7t composition, Cholesterol ester” value [2]?
Its value is 0.23** %.

And the “C18:0 composition, Cholesterol ester” value [2]?
Its value is 4.41* %.

What about the “C18:1n9 composition, Cholesterol ester” value [2] of the same molecule?
The value was 9.73* %.

And the “C18:1t composition, Cholesterol ester” value [2]?
Its value is 0.7*** %.

What about the “C18:2n6 composition, Cholesterol ester” value [2] of the same molecule?
The value was 44.7*** %.

What about the “C18:2n6t composition, Cholesterol ester” value [2] of the same molecule?
The value was 0.9*** %.

And the “C18:3n3 composition, Cholesterol ester” value [2]?
The value was 0.27%.

And the “C18:3n6 composition, Cholesterol ester” value [2]?
The value was 1.76*** %.

And the “C20:0 composition, Cholesterol ester” value [2]?
Its value is 0.1%.

And the “C20:1n9 composition, Cholesterol ester” value [2]?
The value was 0.05%.

And the “C20:2n6 composition, Cholesterol ester” value [2]?
Its value is 0.12%.

What about the “C20:3n6 composition, Cholesterol ester” value [2] of the same molecule?
The value was 10.8*** %.

And the “C20:4n6 composition, Cholesterol ester” value [2]?
Its value is 6.34*** %.

And the “C20:5n3 composition, Cholesterol ester” value [2]?
The value was 0.25%.

And the “C22:0 composition, Cholesterol ester” value [2]?
Its value is 0.12%.

And the “C22:4n6 composition, Cholesterol ester” value [2]?
The value was 0.13%.

And the “C22:5n3 composition, Cholesterol ester” value [2]?
The value was 2.71* %.

What about the “C22:5n6 composition, Cholesterol ester” value [2] of the same molecule?
The value was 0.14%.

What about the “C22:6n3 composition, Cholesterol ester” value [2] of the same molecule?
Its value is 3.26** %.

What about the “C24:0 composition, Cholesterol ester” value [2] of the same molecule?
The value was 0.11%.

And the “C24:1n9 composition, Cholesterol ester” value [2]?
Its value is 0.23%.

And the “C14:0 concentration, Free fatty acids” value [3]?
Its value is 18.8 µg/mL.

And the “C16:0 concentration, Free fatty acids” value [3]?
The value was 132.7 µg/mL.

What about the “C16:1n7 concentration, Free fatty acids” value [3] of the same molecule?
Its value is 8.7 µg/mL.

What about the “C16:1n7t concentration, Free fatty acids” value [3] of the same molecule?
Its value is 0.5 µg/mL.

What about the “C18:0 concentration, Free fatty acids” value [3] of the same molecule?
The value was 76.8 µg/mL.

And the “C18:1n9 concentration, Free fatty acids” value [3]?
Its value is 98.1* μg mL^−1.

What about the “C18:1t concentration, Free fatty acids” value [3] of the same molecule?
Its value is 2.5 µg/mL.

What about the “C18:2n6 concentration, Free fatty acids” value [3] of the same molecule?
The value was 38.5 µg/mL.

And the “C18:2n6t concentration, Free fatty acids” value [3]?
Its value is 3.3 µg/mL.

What about the “C18:3n3 concentration, Free fatty acids” value [3] of the same molecule?
Its value is 1.6 µg/mL.

What about the “C18:3n6 concentration, Free fatty acids” value [3] of the same molecule?
The value was 1.2 µg/mL.

And the “C20:0 concentration, Free fatty acids” value [3]?
The value was 1.8 µg/mL.

And the “C20:1n9 concentration, Free fatty acids” value [3]?
The value was 2.8 µg/mL.

And the “C20:2n6 concentration, Free fatty acids” value [3]?
Its value is 1.1 µg/mL.

And the “C20:3n6 concentration, Free fatty acids” value [3]?
The value was 8.1** μg mL^−1.

And the “C20:4n6 concentration, Free fatty acids” value [3]?
The value was 2.9*** μg mL^−1.

And the “C20:5n3 concentration, Free fatty acids” value [3]?
The value was 8.3 µg/mL.

And the “C22:0 concentration, Free fatty acids” value [3]?
The value was 1.4 µg/mL.

And the “C22:4n6 concentration, Free fatty acids” value [3]?
Its value is 1.1* μg mL^−1.

What about the “C22:5n3 concentration, Free fatty acids” value [3] of the same molecule?
The value was 32.0 µg/mL.

What about the “C22:5n6 concentration, Free fatty acids” value [3] of the same molecule?
The value was 0.4 µg/mL.

And the “C22:6n3 concentration, Free fatty acids” value [3]?
Its value is 5.3 µg/mL.

And the “C24:0 concentration, Free fatty acids” value [3]?
Its value is 1.0 µg/mL.

What about the “C24:1n9 concentration, Free fatty acids” value [3] of the same molecule?
Its value is 1.8 µg/mL.

What about the “Total fatty acids concentration, Free fatty acids” value [3] of the same molecule?
Its value is 451 µg/mL.

And the “C14:0 composition, Free fatty acids” value [4]?
Its value is 4.15%.

And the “C16:0 composition, Free fatty acids” value [4]?
Its value is 29.5%.

And the “C16:1n7 composition, Free fatty acids” value [4]?
Its value is 1.91%.

What about the “C16:1n7t composition, Free fatty acids” value [4] of the same molecule?
Its value is 0.11%.

What about the “C18:0 composition, Free fatty acids” value [4] of the same molecule?
Its value is 17.1* %.

What about the “C18:1n9 composition, Free fatty acids” value [4] of the same molecule?
Its value is 21.8%.

And the “C18:1t composition, Free fatty acids” value [4]?
The value was 0.57%.

And the “C18:2n6 composition, Free fatty acids” value [4]?
Its value is 8.61%.

And the “C18:2n6t composition, Free fatty acids” value [4]?
The value was 0.76%.

What about the “C18:3n3 composition, Free fatty acids” value [4] of the same molecule?
Its value is 0.34%.

What about the “C18:3n6 composition, Free fatty acids” value [4] of the same molecule?
Its value is 0.26* %.

And the “C20:0 composition, Free fatty acids” value [4]?
Its value is 0.39%.

And the “C20:1n9 composition, Free fatty acids” value [4]?
Its value is 0.61%.

And the “C20:2n6 composition, Free fatty acids” value [4]?
Its value is 0.25%.

What about the “C20:3n6 composition, Free fatty acids” value [4] of the same molecule?
Its value is 1.82%.

What about the “C20:4n6 composition, Free fatty acids” value [4] of the same molecule?
Its value is 0.64*** %.

What about the “C20:5n3 composition, Free fatty acids” value [4] of the same molecule?
Its value is 1.75%.

What about the “C22:0 composition, Free fatty acids” value [4] of the same molecule?
Its value is 0.31%.

What about the “C22:4n6 composition, Free fatty acids” value [4] of the same molecule?
Its value is 0.25* %.

What about the “C22:5n3 composition, Free fatty acids” value [4] of the same molecule?
The value was 7.14%.

What about the “C22:5n6 composition, Free fatty acids” value [4] of the same molecule?
The value was 0.10%.

And the “C22:6n3 composition, Free fatty acids” value [4]?
Its value is 1.15%.

And the “C24:0 composition, Free fatty acids” value [4]?
Its value is 0.22%.

What about the “C24:1n9 composition, Free fatty acids” value [4] of the same molecule?
The value was 0.39%.

What about the “C14:0 concentration, Phospholipids” value [5] of the same molecule?
Its value is 5.3 µg/mL.

And the “C16:0 concentration, Phospholipids” value [5]?
Its value is 591 µg/mL.

What about the “C16:1n7 concentration, Phospholipids” value [5] of the same molecule?
The value was 7.7 µg/mL.

What about the “C18:0 concentration, Phospholipids” value [5] of the same molecule?
Its value is 302*** μg mL^−1.

What about the “C18:1n9 concentration, Phospholipids” value [5] of the same molecule?
Its value is 260 µg/mL.

And the “C18:1t concentration, Phospholipids” value [5]?
Its value is 3.9 µg/mL.

What about the “C18:2n6 concentration, Phospholipids” value [5] of the same molecule?
Its value is 400** μg mL^−1.

What about the “C18:2n6t concentration, Phospholipids” value [5] of the same molecule?
The value was 4.5 µg/mL.

And the “C18:3n3 concentration, Phospholipids” value [5]?
Its value is 1.0 µg/mL.

And the “C18:3n6 concentration, Phospholipids” value [5]?
Its value is 4.3 µg/mL.

What about the “C20:0 concentration, Phospholipids” value [5] of the same molecule?
The value was 1.4** μg mL^−1.

And the “C20:1n9 concentration, Phospholipids” value [5]?
Its value is 5.8 µg/mL.

What about the “C20:2n6 concentration, Phospholipids” value [5] of the same molecule?
The value was 9.0 µg/mL.

And the “C20:3n6 concentration, Phospholipids” value [5]?
Its value is 382*** μg mL^−1.

And the “C20:4n6 concentration, Phospholipids” value [5]?
Its value is 31.2*** μg mL^−1.

What about the “C20:5n3 concentration, Phospholipids” value [5] of the same molecule?
Its value is 1.2* μg mL^−1.

What about the “C22:0 concentration, Phospholipids” value [5] of the same molecule?
Its value is 1.8 µg/mL.

What about the “C22:4n6 concentration, Phospholipids” value [5] of the same molecule?
Its value is 2.1*** μg mL^−1.

And the “C22:5n3 concentration, Phospholipids” value [5]?
Its value is 12.8 µg/mL.

What about the “C22:5n6 concentration, Phospholipids” value [5] of the same molecule?
The value was 1.8*** μg mL^−1.

And the “C22:6n3 concentration, Phospholipids” value [5]?
Its value is 70.2** μg mL^−1.

And the “C24:0 concentration, Phospholipids” value [5]?
Its value is 1.0 µg/mL.

And the “C24:1n9 concentration, Phospholipids” value [5]?
The value was 3.3 µg/mL.

And the “Total fatty acids concentration, Phospholipids” value [5]?
The value was 2105* μg mL^−1.

What about the “C14:0 composition, Phospholipids” value [6] of the same molecule?
The value was 0.25* %.

What about the “C16:0 composition, Phospholipids” value [6] of the same molecule?
The value was 28.1** %.

What about the “C16:1n7 composition, Phospholipids” value [6] of the same molecule?
The value was 0.36** %.
